In publication PMC5791972 (PLoS ONE, 2018):
Read-outs that look alike come from different tables or passages of the source.

Columns and labels:
[1] = test system: basolateral amygdala neurons; experiment: Slice recordings of CCK-4 induced EPSCs; assay type: cell-based, mouse
mTRPC5 = target: T1, mTRPC5 (Mus musculus, UniProt Q9QX29); experiment: Whole-cell manual patch clamp; assay type: cell-based; conditions: La3+ (80 μM)
T1 construct: The cDNAs for various full-length ion channels were subcloned into pcDNA5/TO; expressed in transfected cells

α2C (h) = target: T2, α2C (h) (Homo sapiens, UniProt P18825); assay type: binding; conditions: 1.0E-06 M
T2 construct: host or cells: CHO cells
T2 sequence (P18825 1-462): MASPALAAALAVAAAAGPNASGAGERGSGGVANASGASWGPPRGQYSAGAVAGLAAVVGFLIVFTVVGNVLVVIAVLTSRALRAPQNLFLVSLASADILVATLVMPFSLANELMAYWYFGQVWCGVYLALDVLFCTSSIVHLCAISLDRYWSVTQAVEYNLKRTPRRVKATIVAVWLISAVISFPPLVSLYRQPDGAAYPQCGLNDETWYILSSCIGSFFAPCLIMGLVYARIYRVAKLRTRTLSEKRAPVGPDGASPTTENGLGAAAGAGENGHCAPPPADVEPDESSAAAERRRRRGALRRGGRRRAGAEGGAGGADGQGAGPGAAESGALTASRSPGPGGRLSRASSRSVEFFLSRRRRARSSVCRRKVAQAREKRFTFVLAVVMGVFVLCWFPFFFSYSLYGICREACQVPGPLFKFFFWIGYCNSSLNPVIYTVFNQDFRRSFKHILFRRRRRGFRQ

BLT1 (LTB4) (h) = target: T3, BLT1 (LTB4) (h) (Homo sapiens, UniProt Q15722); assay type: binding; conditions: 1.0E-06 M
T3 construct: host or cells: CHO cells

PPARγ (h) = target: T4, PPARγ (h) (Homo sapiens, UniProt P37231); assay type: binding
T4 construct: Cerep; host or cells: E. coli
T4 sequence (P37231 1-505): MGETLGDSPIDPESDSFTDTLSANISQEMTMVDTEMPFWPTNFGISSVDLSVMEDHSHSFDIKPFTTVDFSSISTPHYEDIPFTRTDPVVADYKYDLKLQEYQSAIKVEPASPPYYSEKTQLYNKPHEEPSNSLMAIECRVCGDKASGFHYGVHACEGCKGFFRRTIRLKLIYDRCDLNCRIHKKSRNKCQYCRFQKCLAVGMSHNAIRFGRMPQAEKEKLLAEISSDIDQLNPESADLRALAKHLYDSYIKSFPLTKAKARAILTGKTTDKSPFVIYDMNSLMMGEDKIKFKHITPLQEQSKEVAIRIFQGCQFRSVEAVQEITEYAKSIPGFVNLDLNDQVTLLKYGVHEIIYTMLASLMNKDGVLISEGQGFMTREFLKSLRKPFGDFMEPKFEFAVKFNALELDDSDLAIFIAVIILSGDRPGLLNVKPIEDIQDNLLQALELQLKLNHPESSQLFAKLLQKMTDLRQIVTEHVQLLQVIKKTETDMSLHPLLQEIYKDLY

COX2 (h) = target: T5, COX2 (h) (Homo sapiens, UniProt P35354); experiment: enzyme assay; assay type: biochemical; conditions: 1.0E-06 M
T5 construct: Cerep (contract assay); host or cells: Sf9 cells
T5 sequence (P35354 18-604): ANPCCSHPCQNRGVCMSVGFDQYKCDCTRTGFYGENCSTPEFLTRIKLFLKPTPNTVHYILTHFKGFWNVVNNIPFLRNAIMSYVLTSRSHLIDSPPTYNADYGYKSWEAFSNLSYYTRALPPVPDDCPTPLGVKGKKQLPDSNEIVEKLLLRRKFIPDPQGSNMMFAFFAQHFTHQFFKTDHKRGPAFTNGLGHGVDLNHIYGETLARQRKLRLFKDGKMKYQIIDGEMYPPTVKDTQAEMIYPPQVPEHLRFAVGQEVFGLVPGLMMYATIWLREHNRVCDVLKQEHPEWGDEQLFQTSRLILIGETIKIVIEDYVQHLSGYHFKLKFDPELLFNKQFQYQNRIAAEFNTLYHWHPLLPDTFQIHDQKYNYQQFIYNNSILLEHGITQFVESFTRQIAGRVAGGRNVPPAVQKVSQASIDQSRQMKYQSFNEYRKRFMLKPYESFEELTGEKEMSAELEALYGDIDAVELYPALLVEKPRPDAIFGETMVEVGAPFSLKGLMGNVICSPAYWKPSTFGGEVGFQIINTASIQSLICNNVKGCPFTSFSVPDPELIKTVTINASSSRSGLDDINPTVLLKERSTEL

ZAP70 kinase (h) = target: T6, ZAP70 kinase (h) (Homo sapiens, UniProt P43403); experiment: biochemical; conditions: 1.0E-06 M
T6 construct: host or cells: insect cells
T6 sequence (P43403 1-619): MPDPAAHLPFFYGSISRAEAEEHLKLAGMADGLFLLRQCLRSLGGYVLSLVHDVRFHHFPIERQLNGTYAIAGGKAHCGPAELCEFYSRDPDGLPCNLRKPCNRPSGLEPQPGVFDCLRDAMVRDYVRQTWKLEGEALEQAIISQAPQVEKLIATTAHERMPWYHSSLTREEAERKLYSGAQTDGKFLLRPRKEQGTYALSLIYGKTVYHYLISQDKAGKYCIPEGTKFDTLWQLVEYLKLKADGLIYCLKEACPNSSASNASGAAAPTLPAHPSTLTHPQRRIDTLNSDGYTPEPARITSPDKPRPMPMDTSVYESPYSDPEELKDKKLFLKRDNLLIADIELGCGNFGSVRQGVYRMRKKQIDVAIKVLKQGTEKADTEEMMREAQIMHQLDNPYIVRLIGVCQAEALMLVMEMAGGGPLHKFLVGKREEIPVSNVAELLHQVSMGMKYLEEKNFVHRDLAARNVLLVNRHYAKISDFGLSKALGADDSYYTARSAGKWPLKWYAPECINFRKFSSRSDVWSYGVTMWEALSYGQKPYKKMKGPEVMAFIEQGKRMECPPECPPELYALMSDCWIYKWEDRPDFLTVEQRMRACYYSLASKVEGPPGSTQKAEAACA

T3 sequence (Q15722 whole entry): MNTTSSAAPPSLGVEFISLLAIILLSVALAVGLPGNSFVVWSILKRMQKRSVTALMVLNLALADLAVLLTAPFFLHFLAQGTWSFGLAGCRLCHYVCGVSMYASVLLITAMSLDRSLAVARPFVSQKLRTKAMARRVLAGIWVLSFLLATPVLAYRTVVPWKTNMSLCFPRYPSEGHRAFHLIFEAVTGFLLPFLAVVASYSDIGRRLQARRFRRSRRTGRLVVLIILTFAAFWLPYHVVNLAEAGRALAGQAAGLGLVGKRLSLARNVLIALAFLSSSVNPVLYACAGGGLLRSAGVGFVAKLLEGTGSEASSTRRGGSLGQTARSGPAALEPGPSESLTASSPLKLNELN
T1 sequence (Q9QX29 whole entry): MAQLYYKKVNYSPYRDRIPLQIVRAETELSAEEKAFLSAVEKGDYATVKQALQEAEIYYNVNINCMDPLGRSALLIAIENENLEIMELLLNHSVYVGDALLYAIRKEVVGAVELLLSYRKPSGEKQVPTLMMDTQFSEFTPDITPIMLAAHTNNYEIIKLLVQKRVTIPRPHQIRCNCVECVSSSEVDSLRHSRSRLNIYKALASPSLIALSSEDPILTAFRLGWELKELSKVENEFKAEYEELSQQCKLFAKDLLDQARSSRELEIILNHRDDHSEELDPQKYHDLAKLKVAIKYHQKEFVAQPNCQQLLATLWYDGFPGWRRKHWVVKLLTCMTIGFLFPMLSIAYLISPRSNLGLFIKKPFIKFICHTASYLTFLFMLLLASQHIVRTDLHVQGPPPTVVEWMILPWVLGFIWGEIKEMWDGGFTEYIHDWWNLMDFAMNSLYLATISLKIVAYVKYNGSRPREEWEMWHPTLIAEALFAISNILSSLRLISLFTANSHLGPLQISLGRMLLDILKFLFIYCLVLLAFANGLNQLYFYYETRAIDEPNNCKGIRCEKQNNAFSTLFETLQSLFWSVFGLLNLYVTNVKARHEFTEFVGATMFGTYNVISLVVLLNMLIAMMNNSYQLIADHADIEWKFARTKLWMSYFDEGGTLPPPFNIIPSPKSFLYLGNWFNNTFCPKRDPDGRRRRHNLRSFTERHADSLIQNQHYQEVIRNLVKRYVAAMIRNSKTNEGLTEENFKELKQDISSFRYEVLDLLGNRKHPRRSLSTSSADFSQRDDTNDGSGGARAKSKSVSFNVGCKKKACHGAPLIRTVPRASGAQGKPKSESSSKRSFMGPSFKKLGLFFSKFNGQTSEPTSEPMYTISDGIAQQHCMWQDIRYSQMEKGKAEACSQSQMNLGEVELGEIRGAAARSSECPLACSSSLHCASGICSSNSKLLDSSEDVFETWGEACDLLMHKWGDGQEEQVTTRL

Structure (SMILES): Cn1c(=O)n(CCCO)c(=O)c2c1nc(Oc1cccc(Cl)c1)n2Cc1ccc(Cl)cc1 [HC-070]
- effect on CCK-4 stimulated increase of postsynaptic currents ([1]; 20 nM, CCK-4 1 μM): pronounced attenuation of the CCK-4 related effect
- basal synaptic activity prior to CCK-4 addition ([1]; slices pretreated with 20 nM HC-070, n = 8): 154±35 postsynaptic currents/minute

Structure (SMILES): Cn1c(=O)n(CCCO)c(=O)c2c1nc(Oc1cccc(OC(F)(F)F)c1)n2Cc1ccc(Cl)cc1 [HC-608]
- IC50 (mTRPC5): ~0.62 nM
- inhibition at 1 µM (α2C (h); read-out: % Inhibition 1st): -4.1%
- inhibition at 1 µM (α2C (h); read-out: % Inhibition 2nd): -10.2%
- inhibition at 1 µM (α2C (h); read-out: % Inhibition Mean): -7.1%
- inhibition at 1 µM (BLT1 (LTB4) (h); read-out: % Inhibition 1st): -2.9%
- inhibition at 1 µM (BLT1 (LTB4) (h); read-out: % Inhibition 2nd): 13.4%
- inhibition at 1 µM (BLT1 (LTB4) (h); read-out: % Inhibition Mean): 5.3%
- inhibition at 1 µM (PPARγ (h); 1.0E-06 M, read-out: % Inhibition 1st): 6.7%
- inhibition at 1 µM (PPARγ (h); 1.0E-06 M, read-out: % Inhibition 2nd): 16.2%
- inhibition at 1 µM (PPARγ (h); read-out: % Inhibition Mean): 11.5%
- inhibition at 1 µM (COX2 (h); read-out: % Inhibition 1st): -5.6%
- inhibition at 1 µM (COX2 (h); read-out: % Inhibition 2nd): 11.8%
- inhibition at 1 µM (COX2 (h); read-out: % Inhibition Mean): 3.1%
- inhibition at 1 µM (ZAP70 kinase (h); read-out: % Inhibition 1st): -1.6%
- inhibition at 1 µM (ZAP70 kinase (h); read-out: % Inhibition 2nd): -3%
- inhibition at 1 µM (ZAP70 kinase (h); read-out: % Inhibition Mean): -2.3%
